According to paper PMC5064002, “Sintokamide A Is a Novel Antagonist of Androgen Receptor That Uniquely Binds Activation Function-1 in Its Amino-terminal Domain” (The Journal of Biological Chemistry, 2016):

Legend:
Format in all cases: cell-based
[1] = target: T1, AR interaction with STAT3 (Homo sapiens, UniProt P10275, T878A); test: Co-immunoprecipitation of AR with STAT3 in LNCaP cells; settings: EPI-002 35 μM or SINT1 20 μM, 50 ng/ml IL-6 6 h
T1 construct: endogenous in cells; host or cells: LNCaP
T1 sequence (P10275 1-920 T878A): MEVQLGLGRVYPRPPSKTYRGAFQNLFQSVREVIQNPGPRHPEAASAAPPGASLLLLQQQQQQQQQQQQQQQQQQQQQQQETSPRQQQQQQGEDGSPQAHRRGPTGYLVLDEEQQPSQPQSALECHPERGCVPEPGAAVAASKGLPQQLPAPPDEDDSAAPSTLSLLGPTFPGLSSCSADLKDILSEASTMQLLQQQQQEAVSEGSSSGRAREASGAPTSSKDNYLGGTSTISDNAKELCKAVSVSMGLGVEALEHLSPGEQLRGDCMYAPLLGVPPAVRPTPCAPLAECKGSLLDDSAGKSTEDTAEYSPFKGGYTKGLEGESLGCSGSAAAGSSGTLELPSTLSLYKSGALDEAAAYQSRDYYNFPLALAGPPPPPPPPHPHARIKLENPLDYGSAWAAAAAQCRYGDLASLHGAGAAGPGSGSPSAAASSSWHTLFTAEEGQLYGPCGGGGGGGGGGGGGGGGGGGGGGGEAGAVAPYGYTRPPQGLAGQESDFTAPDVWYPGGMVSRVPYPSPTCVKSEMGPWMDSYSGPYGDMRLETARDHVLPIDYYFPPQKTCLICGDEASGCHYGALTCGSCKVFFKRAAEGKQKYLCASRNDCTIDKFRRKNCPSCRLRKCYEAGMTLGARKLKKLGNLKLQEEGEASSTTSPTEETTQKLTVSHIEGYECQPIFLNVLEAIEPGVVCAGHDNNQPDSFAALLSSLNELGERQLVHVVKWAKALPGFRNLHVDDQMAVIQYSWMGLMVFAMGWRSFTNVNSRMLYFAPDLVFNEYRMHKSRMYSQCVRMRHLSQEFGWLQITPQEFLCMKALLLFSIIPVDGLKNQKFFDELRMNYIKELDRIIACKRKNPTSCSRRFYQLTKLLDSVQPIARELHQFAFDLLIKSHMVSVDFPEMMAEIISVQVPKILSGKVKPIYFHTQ
Description: LNCaP cells were preincubated with EPI-002 (35 μM), SINT1 (20 μM), or DMSO (vehicle control) for 1 h before treatment for 6 h with 50 ng/ml IL-6. Whole cell lysates were prepared from harvested cells in modified radioimmune precipitation assay buffer. Cell lysates were precleared with 2 μg of normal mouse IgG and 20 μl of Protein A/G PLUS-agarose beads (Santa Cruz Biotechnology) to remove nonspecific bead binding. Total STAT3 was immunoprecipitated with 10 μg of antibody against STAT3 (124H6) or 10 μg of normal mouse IgG as a negative control followed by probing the immunoblot with anti-AR antibody (AR-N20; 1:1000) and anti-STAT3 antibody (124H6; 1:1000) and normalizing to levels of β-actin (1:10,000) as loading controls. The input lanes were loaded with 5 μg of the starting cell lysate. The relative density of AR for each immunoprecipitated sample was quantified by ImageJ software and normalized to levels of STAT3 pulled down.

LNCaP95 cells = test: Cell proliferation (BrdU incorporation), LNCaP95; settings: 48 h
Description: (§1) Cells were pulse-labeled with 10 μM BrdU for 2 h. Cells were fixed, and BrdU-labeled cells were identified with anti-BrdU-peroxidase (Roche Applied Science). BrdU incorporation was measured at 570 nm using a VersaMax ELISA microplate reader (Molecular Devices). At least three independent experiments with six technical replicates were analyzed, and average values are indicated.

LNCaP cells = test: Cell proliferation (BrdU incorporation), LNCaP; settings: 0.1 nM R1881, 72 h
Description: as §1

AR-V567es = target: T2, AR-V567es (Homo sapiens, UniProt P10275); test: Transcriptional activity of AR splice variant, PB-luciferase in COS-1 cells; settings: for AR-V567es transcriptional activities (PB-luciferase): COS-1, 20 μM SINT1, 25 μM EPI-002
T2 construct: expressed in transfected cells; host or cells: COS-1
T2 sequence (P10275 with tags, fused parts or gaps limits assumed): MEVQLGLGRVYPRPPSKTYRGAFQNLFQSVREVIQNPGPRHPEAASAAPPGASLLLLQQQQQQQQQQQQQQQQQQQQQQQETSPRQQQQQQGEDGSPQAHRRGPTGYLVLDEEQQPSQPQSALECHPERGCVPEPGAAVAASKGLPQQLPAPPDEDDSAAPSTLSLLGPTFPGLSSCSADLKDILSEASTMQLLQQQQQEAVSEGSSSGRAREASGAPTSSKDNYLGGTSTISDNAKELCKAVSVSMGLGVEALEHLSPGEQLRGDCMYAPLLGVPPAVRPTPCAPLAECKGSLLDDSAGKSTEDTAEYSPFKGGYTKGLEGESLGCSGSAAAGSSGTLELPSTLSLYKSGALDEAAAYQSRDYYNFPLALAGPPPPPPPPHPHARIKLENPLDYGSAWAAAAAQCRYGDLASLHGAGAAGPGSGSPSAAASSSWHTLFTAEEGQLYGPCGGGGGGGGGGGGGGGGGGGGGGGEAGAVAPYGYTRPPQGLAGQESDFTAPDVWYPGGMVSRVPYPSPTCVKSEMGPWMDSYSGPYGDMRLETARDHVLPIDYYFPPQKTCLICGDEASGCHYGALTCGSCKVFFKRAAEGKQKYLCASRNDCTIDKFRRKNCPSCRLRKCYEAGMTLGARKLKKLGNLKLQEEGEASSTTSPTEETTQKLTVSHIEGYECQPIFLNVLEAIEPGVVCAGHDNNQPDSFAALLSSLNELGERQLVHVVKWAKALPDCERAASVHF
Description: […]. Levels of expression of AR variant were determined by Western blotting using 10 μg of total protein extracted from same plates (3 wells per condition) using AR-N20 antibody (1:1000) and goat anti-rabbit HRP-conjugated secondary antibody (Santa Cruz Biotechnology; 1:10,000).

Structure (SMILES)	interaction between AR and STAT3 [1]	proliferation of LNCaP95 cells (LNCaP95 cells)	androgen-induced proliferation of LNCaP cells (LNCaP cells)	AR-V567es transcriptional activities (PB-luciferase) (AR-V567es)	levels of AR-V567es protein (AR-V567es; COS-1, Western blot)
CC(C)(c1ccc(OC[C@H](O)CO)cc1)c1ccc(OC[C@H](O)CCl)cc1 [EPI-002, reference compound]	inhibited interaction	inhibited	inhibited	significantly inhibited	
CCC(=O)NC(CC(C)C(Cl)(Cl)Cl)C(=O)N1C(=O)C=C(OC)C1CC(C)C(Cl)Cl (stereo not drawn) [SINT1, Sintokamide A]	did not	inhibited	inhibited	significantly inhibited	not decreased
